Source: patent US11142526B2, “Spirocycle compounds and methods of making and using same” (H. Lundbeck A/S, priority 2017, dated 2021)

Legend:
MAGL [1] = target: T1, MAGL (Mus musculus (Mouse), UniProt O35678); assay: In vitro competitive activity-based protein profiling, mouse brain proteome; format: biochemical; settings: for inhibition at 1 µM: mouse; for IC50: mouse brain
MAGL [2] = target: T1, MAGL; assay: Mouse brain proteomes from inhibitor treated mice (oral gavage, brain MAGL activity 4 h after administration); format: in vivo; settings: 5 mg/kg oral gavage
Protocol: Preparation of Mouse Brain Proteomes from Inhibitor Treated Mice.
Inhibitors were administered to wild-type C57B1/6J by oral gavage in a vehicle of polyethylene glycol.

T1 sequence (O35678 whole entry): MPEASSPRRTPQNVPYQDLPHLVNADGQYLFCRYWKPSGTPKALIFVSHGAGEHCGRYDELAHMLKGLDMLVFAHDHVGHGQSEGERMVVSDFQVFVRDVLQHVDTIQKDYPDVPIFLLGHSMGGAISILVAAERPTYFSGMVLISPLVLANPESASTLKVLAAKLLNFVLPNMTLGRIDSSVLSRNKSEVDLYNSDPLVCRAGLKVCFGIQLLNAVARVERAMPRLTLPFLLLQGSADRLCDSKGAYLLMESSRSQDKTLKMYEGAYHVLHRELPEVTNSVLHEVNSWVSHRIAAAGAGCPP

| Compound | inhibition at 1 µM (MAGL [1]) [%] | IC50 (MAGL [1]) [nM] | MAGL % Inhibition at 5 mg/kg (Mouse) (MAGL [2]) |
| --- | --- | --- | --- |
| CC(C)n1cc(CN2CCCC23CCN(C(=O)OC(C(F)(F)F)C(F)(F)F)CC3)c(-c2ccccc2Cl)n1 [Example 222, 1,1,1,3,3,3-Hexafluoropropan-2-yl 1-((3-(2-chlorophenyl)-1-isopropyl-1H-pyrazol-4-yl)methyl)-1,8-diazaspiro[4.5]decane-8-carboxylate] | > 75 | < 100 | ### (% inhibition is greater than or equal to 75%) |
| Cc1ccc2sc(CN3CCCC34CCN(C(=O)OC(C(F)(F)F)C(F)(F)F)CC4)cc2c1 [Example 61, 1,1,1,3,3.3-Hexafluoropropan-2-yl 1-((5-methylbenzo[b]thiophen-2-yl)methyl)-1,8-diazaspiro[4.5] decane-8-carboxylate] | > 75 | < 100 | ### (% inhibition is greater than or equal to 75%) |
| O=C(OC(C(F)(F)F)C(F)(F)F)N1CCC2(CCCN2C(=O)c2cc3cc(Cl)ccc3[nH]2)CC1 [Example 93, 1,1,1,3,3.3-Hexafluoropropan-2-yl 1-(5-chloro-1H-indole-2-carbonyl)-1,8-diazaspiro[4.5] decane-8-carboxylate] | > 75 | < 100 | ### (% inhibition is greater than or equal to 75%) |
| O=C(OC(C(F)(F)F)C(F)(F)F)N1CCC2(CCN(Cc3cc4cc(Cl)ccc4s3)C2)CC1 [Example 51, 1,1,1,3,3,3-Hexafluoropropan-2-yl 2-((5-chlorobenzo[b]thiophen-2-yl)methyl)-2,8-diazaspiro[4.5] decane-8-carboxylate] | > 75 | < 100 | ### (% inhibition is greater than or equal to 75%) |
| O=C(OC(C(F)(F)F)C(F)(F)F)N1CCC2(CCCN2C(=O)c2cc3cc(Cl)cc(Cl)c3[nH]2)CC1 [Example 16, 1,1,1,3,3,3-Hexafluoropropan-2-yl 1-(5,7-dichloro-1H-indole-2-carbonyl)-1,8-diazaspiro[4.5]decane-8-carboxylate] | > 75 | < 100 | ### (% inhibition is greater than or equal to 75%) |
| CC(C)(C)c1cc(CN2CCC3(CCN(C(=O)OC(C(F)(F)F)C(F)(F)F)CC3)C2)n(C2CCOCC2)n1 [Example 213, 1,1,1,3,3,3-Hexafluoropropan-2-yl 2-((3-(t-butyl)-1-(tetrahydro-2H-pyran-4-yl)-1H-pyrazol-5-yl)methyl)-2,8-diazaspiro[4.5]decane-8-carboxylate] | > 75 | < 100 | ### (% inhibition is greater than or equal to 75%) |
| O=C(OC(C(F)(F)F)C(F)(F)F)N1CCC2(CCCN2Cc2sc3ccccc3c2Cl)CC1 [Example 42, 1,1,1,3,3,3-Hexafluoropropan-2-yl 1-((3-chlorobenzo[b]thiophen-2-yl)methyl)-1,8-diazaspiro[4.5] decane-8-carboxylate] | > 75 | < 100 | ### (% inhibition is greater than or equal to 75%) |
| O=C(OC(C(F)(F)F)C(F)(F)F)N1CCC2(CCCN2Cc2cc3cc(C(F)(F)F)ccc3s2)CC1 [Example 41, 1,1,1,3,3,3-Hexafluoropropan-2-yl 1-((5-(trifluoromethyl)benzo[b]thiophen-2-yl)methyl)-1,8-diazaspiro[4.5] decane-8-carboxylate] | > 75 | < 100 | ### (% inhibition is greater than or equal to 75%) |
| O=C(OC(C(F)(F)F)C(F)(F)F)N1CCC2(CCCN2C(=O)c2cc3cc(C(F)(F)F)ccc3s2)CC1 [Example 102, 1,1,1,3,3,3-Hexafluoropropan-2-yl 1-(5-(trifluoromethyl)benzo[b]thiophene-2-carbonyl)-1,8-diazaspiro[4.5] decane-8-carboxylate] | > 75 | < 100 | ### (% inhibition is greater than or equal to 75%) |
| O=C(OC(C(F)(F)F)C(F)(F)F)N1CCC2(CCCN2Cc2csc(-c3ccccc3)n2)CC1 [Example 227, 1,1,1,3,3,3-Hexafluoropropan-2-yl 1-((2-phenylthiazol-4-yl)methyl)-1,8-diazaspiro[4.5]decane-8-carboxylate] | > 75 | < 100 | ### (% inhibition is greater than or equal to 75%) |
| Cc1c(CN2CCCC23CCN(C(=O)OC(C(F)(F)F)C(F)(F)F)CC3)sc2ccccc12 [Example 43, 1,1,1,3,3,3-Hexafluoropropan-2-yl 1-((3-methylbenzo[b]thiophen-2-yl)methyl)-1,8-diazaspiro[4.5] decane-8-carboxylate] |  | < 100 | ### (% inhibition is greater than or equal to 75%) |
| CCc1cc(CN2CCC3(CCN(C(=O)OC(C(F)(F)F)C(F)(F)F)CC3)C2)n(C2CCOCC2)n1 [Example 7, 1,1,1,3,3,3-Hexafluoropropan-2-yl 2-((3-ethyl-1-(tetrahydro-2H-pyran-4-yl)-1H-pyrazol-5-yl)methyl)-2,8-diazaspiro[4.5]decane-8-carboxylate] | > 75 | < 100 | ### (% inhibition is greater than or equal to 75%) |
| O=C(OC(C(F)(F)F)C(F)(F)F)N1CCC2(CCCN2Cc2cc3cc(F)ccc3[nH]2)CC1 [Example 52, 1,1,1,3,3,3-Hexafluoropropan-2-yl 1-((5-fluoro-1H-indol-2-yl)methyl)-1,8-diazaspiro[4.5] decane-8-carboxylate] | > 75 | < 100 | ### (% inhibition is greater than or equal to 75%) |
| O=C(OC(C(F)(F)F)C(F)(F)F)N1CCC2(CCCN2C(=O)c2cc3cccc(Cl)c3s2)CC1 [Example 105, 1,1,1,3,3,3-Hexafluoropropan-2-yl 1-(7-chlorobenzo[b]thiophene-2-carbonyl)-1,8-diazaspiro[4.5] decane-8-carboxylate] | > 75 | < 100 | ### (% inhibition is greater than or equal to 75%) |
| CCc1cc(CN2CCC3(CCN(C(=O)OC(C(F)(F)F)C(F)(F)F)CC3)C2)n(-c2ccccc2Cl)n1 [Example 215, 1,1,1,3,3,3-Hexafluoropropan-2-yl 2-((1-(2-chlorophenyl)-3-ethyl-1H-pyrazol-5-yl)methyl)-2,8-diazaspiro[4.5]decane-8-carboxylate] | > 75 | < 100 | ### (% inhibition is greater than or equal to 75%) |
| O=C(OC(C(F)(F)F)C(F)(F)F)N1CCC2(CCCN2C(=O)c2ccc3occc3c2)CC1 [Example 77, 1,1,1,3,3,3-Hexafluoropropan-2-yl 1-(benzofuran-5-carbonyl)-1,8-diazaspiro[4.5] decane-8-carboxylate] | > 75 | < 100 | ### (% inhibition is greater than or equal to 75%) |
| CC(C)n1cc(CN2CCCC23CCN(C(=O)OC(C(F)(F)F)C(F)(F)F)CC3)c(-c2cccc(Cl)c2)n1 [Example 219, 1,1,1,3,3,3-Hexafluoropropan-2-yl 1-((3-(3-chlorophenyl)-1-isopropyl-1H-pyrazol-4-yl)methyl)-1,8-diazaspiro[4.5]decane-8-carboxylate] | > 75 | < 100 | ### (% inhibition is greater than or equal to 75%) |
